Key:
[1] = tested on: LNCap (wild-type p53) xenograft tumors; assay: Xenograft model, LNCap tumors, PEITC diet; assay type: in vivo, BALB/C nu/nu transgenic mice
Description: Briefly, 30 BALB/C nu/nu transgenic mice (purchased from Charles River) were randomized into two groups, and fed with powder diet AlN93 (purchased from Research Diets, Inc.) with or without addition of 5 μM PEITC compound (purchased from Sigma-Aldrich). After two weeks of feeding, two xenograft tumors each carrying […] in a volume of 100 μL were established by injection into both flanks of a mouse. Mice were continuously fed with diets with or without PEITC for additional 8 weeks before sacrifice. Diet intake and tumor volume were measured twice every week. Tumors were harvested at the end of bioassay for immunohistochemistry and immunoblot studies. […] Immunohistochemistry assays were carried out to examine the apoptotic markers, such as TUNEL, and anti-proliferation marker Ki67 in tumors from the PEITC-treated vs. untreated mice. This study provides the first in vivo evidence that mutant p53 can be depleted in tumors of mice fed PEITC-containing diet and its depletion seems to correlate with growth inhibition in the mutant p53 tumors.

A549 (WT p53) cell line = assay: Cell proliferation, A549; assay type: cell-based, Human
Description: (§1) Next, the effect of PEITC exposure on tumor growth of the tumor cell lines expressing mutant or the WT p53 protein was examined. […] This hypersensitivity to PEITC being mediated through mutant p53 was next examined. The effect of PEITC on mda-mb-231 cells depleted of mutant p53 by >90% was compared to non-specific (NS) siRNA transfected cells as a control (FIG. 9B). […] Further the effect of PEITC treatment on the level of mutant p53 protein at lower doses was analyzed by western blot analysis (FIG. 9D).

[2] = target: T1, mutant (G245C) p53 DNA-binding domain (Homo sapiens, UniProt P04637, G245C); assay: Monochlorobimane fluorometric cysteine binding assay; details: 100 μM ITC, 1 h, 32 C; compared with trityl ITC, cyclohexylmethyl ITC, SFN, AITC, and PITC (p<0.05)
T1 construct: made in house; host or cells: Escherichia coli BL21
Description: BL21 […] Escherichia coli were transformed with pET29b wild-type or mutant (G245C) p53 DNA binding domain (DBD) plasmids. The E. coli were then cultured in LB media supplemented with 100 μM ZnCl2 and 25 μg/mL kanamycin at 37° C. until OD600=0.6-0.8. Protein expression was induced by 0.1 mM isopropyl β-D-1-thiogalactopyranoside for 16 h at 37 gC for wild-type and 16 gC for mutant p53. Bacterial pellets were then harvested by centrifugation at 5000×g, 10 min, 4 gC, and lysed via sonication in 50 mM Tris, 50 mM KCl, 5 mM dithiothreitol, 1 mM PMSF, pH 7 buffer. The soluble fraction was passed through a Capto S cation exchange column (GE Healthcare) and eluted with 50 mM Tris, 200 mM KCl, 5 mM DTT, pH 7. Eluted protein was dialyzed overnight against a non-salt dialysis buffer (50 mM Tris, 5 mM DTT, pH 7) and loaded onto a HiTrap Heparin HP column (GE Healthcare). The p53 DBD was purified via a AKTApurifier-10 protein liquid chromatography system (GE Healthcare) with an increasing KCl salt gradient, and purity was tested by SDSPAGE and Coomassie blue staining. Purified protein was dialyzed in PBS, and protein concentrations were determined prior to performing fluorescence experiments.
In a white 96-well plate, 100 μL of purified mutant (G245C) p53 DNA-binding domain protein in PBS was treated with DMSO, 100 μM ITCs in DMSO, or 500 μM iodoacetamide (positive binding control). An additional well containing 100 μL of PBS was used to determine background. Samples were incubated with compounds in the dark for 1 h at 32 gC, after which […] of 10 mM monochlorobimane was added (in the dark), and samples were further incubated in the dark at 32 gC for 30 min. Fluorescence readings were then obtained using a BIO-TEK Synergy HT plate reader (λex 380 nm; λem 485 nm).

HOP-92 (R175L) cell line = assay: Cell proliferation, HOP-92; assay type: cell-based; details: Homo sapiens, 250 nM PEITC
Description: as §1

[3] = target: T2, p53R175H mutant protein in SK-BR-3 cells (Homo sapiens, UniProt P04637, R175H); assay: Immunofluorescence with conformation specific antibodies (PAB240, PAB1620); assay type: cell-based; details: SK-BR-3, PEITC 4 hrs vs DMSO
T2 construct: endogenous in cells; host or cells: SK-BR-3
Description: To determine if the induction of apoptosis is due to the restoration of WT conformation to the mutant p53 protein, immunoflourescence analysis was performed. SK-BR-3 cells expressing p53R175H mutant protein were treated with PEITC or DMSO as a control for 4 hrs. Cells were stained with the conformation specific antibody (PAB240) that recognizes the mutant p53 or antibody specific for the WT p53 protein (PAB1620).

p53 in H1299-143A cells = target: T3, p53 in H1299-143A cells (Homo sapiens, UniProt P04637, V143A); assay: PEITC-induced p53 depletion in H1299-143A cells, mutant vs wild-type conformation; assay type: cell-based; details: 20 μM PEITC, 24 h
T3 construct: expressed in transfected cells; host or cells: H1299-143A
Description: FIG. 2 depicts PEITC depleting p53 protein in human cancer cells with different p53 mutation but not in cells with wild-type p53. (A) Cell lines harboring mutant p53 were treated with 15 μM PEITC (MDA-MB-231, MDA-MB-468, and SCC-4) or 10 μM PEITC (DU145 and SW480) for the indicated times. (B) Cells with wild-type p53 were treated with 20 μM PEITC (HCT116, A549, and MCF-7) or 15 μM PEITC (MCF-10A) for the indicated times. […] H1299-175H cells are used as control. Both cells were treated with 20 μM PEITC for 24 h.

SMILES: S=C=NCCc1ccccc1 [PEITC, phenethyl isothiocyanate]
- p53 level in tumors detected by immunoblot ([1]; LNCap tumors, PEITC diet): not in LNCap tumors
- tumor volume ([1]; LNCap xenograft, diet with 5 μM PEITC vs diet without PEITC, 8 weeks): significantly decreased
- reduction in cell proliferation (A549 (WT p53) cell line; 12 μM PEITC): 25%
- reduction in cell proliferation (A549 (WT p53) cell line; 14 μM PEITC): 45%
- binding affinity for mutant (G245C) p53 DBD (free thiols, relative fluorescence) [2]: greater binding affinities
- inhibition at 0.25 µM (HOP-92 (R175L) cell line): 40%
- conformation of p53R175H mutant (PAB1620 staining) [3]: induced conformation change
- sensitivity to PEITC-induced p53 depletion, mutant conformation (37° C.) vs wild-type conformation (32.5° C.) (p53 in H1299-143A cells): more sensitive

— US20130158111A1, “Compositions and Methods for Depleting Mutant p53” (Georgetown University, priority 2011, published 2013)
